Laboratory results taken from article PMC7557242 (ACS Omega, 2020).
Read-outs that look alike come from different tables or passages of the source.

Assays:
[1] = test system: SAs from different species; conditions: CSA versus HSA
human serum albumin = conditions: previous study, cited from earlier work
plasma protein = conditions: cited from earlier work
serum albumin (SA) = conditions: after intravenous injection, in most of the cases; cited from earlier work

SMILES: CC(C)c1cccc(C(C)C)c1O [PR, 2,6-Diisopropylphenol]
- difference between UC50 values [1]: 0.07
- ΔGPBSA (human serum albumin; PR1): -23.44 kcal/mol
- ΔGPBSA (human serum albumin; PR2): -19.03 kcal/mol
- % PPB (plasma protein binding) (plasma protein): 96–98%
- PR bound to SA (serum albumin (SA)): approximately 80%
